Experimental data published in patent US20150336919A1, “Sesquiterpene lactone-based pharmaceutical composition for treating gastrointestinal diseases” (CHO DANG PHARM. CO., LTD., priority 2012, published 2015).

Key:
[1] = test system: Chinese hamster lung (CHL) cell; test: Chromosomal aberration test using Chinese hamster lung (CHL) cell; format: cell-based; details: for Chromosomal aberration test result: dose not given
Text: For measuring the induction of chromosomal aberration, the chromosomal aberration test has been carried out using Chinese hamster lung (CHL) cell. 2 kinds of methods have been adopted, such as, metabolic activation method (+S9) using metabolic activation system and direct method (−S9) without metabolic activation system.
For determining the test material reacting concentration, the cell growth inhibition test has been carried out. The test material has been dissolved and diluted in dimethyl sulfoxide (DMSO). Regardless of metabolic activation system, 12 concentration steps (2.43, 4.87, 9.75, 19.5, 39.1, 78.1, 156.3, 312.5, 625, 1250, 2500, 5000 μg/ml) of test material have been prepared. The cells have been cultured for 24 hours as the same way of main test. […] The medium has been further cultured for 18 hours.
Based upon the data of cell growth inhibition test, maximum concentration has been determined when the cell growth has been inhibited up to 50% as the relative cell numbers.
Regardless of metabolic activation system, the test materials have been prepared after 24 hours from the initiation of test. Then, the number of chromosomal aberration has been counted.

[2] = test system: indomethacin inducing stomach ulcer model; test: Indomethacin inducing stomach ulcer model; format: in vivo, white rats; details: oral
Method: After white rats have been fasted for 24 hours, CD-101, CD-102 and CD-103 compound have been orally administered according to method disclosed in Yamasaki et al., Jap. J. Pharmacol. 49: pp. 441-448 (1989). After 1 hour, indomethacin (50 mg/kg) has been orally administered to each animal After fasting for 5 hours, animals have been sacrificed by cervical dislocation. After removing the stomach, the stomach has been fixed by injection of 13 ml of 2% formalin for 1 hour. After fixed stomach has been spread out, the lesion area has been measured using the photo by digital camera. Computer program Image J 1.38 (NIH, Bethesda, Md.) has been applied for measuring gastric lesion area (mm^2) The lesion inhibition rate and 50% effective dose (ED50) have been calculated as the same manner of HCl-EtOH model.

[3] = test system: HCl-Ethanol inducing gastritis model; test: HCl-Ethanol inducing gastritis model; format: in vivo, white rats
Method: After white rats have been fasted for 24 hours, CD-101, CD-102 and CD-103 compound have been orally administered according to method disclosed in Mizui et al., Jap. J. Pharmacol. 33: pp. 939-945 (1983). After 1 hour, 1.5 ml of 60% ethanol including 150 mM HCl has been orally administered to each animal. 1 hour later, animals have been sacrificed by cervical dislocation. After removing the stomach, the stomach has been fixed by injection of 13 ml of 2% formalin for 1 hour. After fixed stomach has been spread out, the lesion area has been measured using the photo by digital camera. Computer program Image J 1.38 (NIH, Bethesda, Md.) has been applied for measuring gastric lesion area (mm^2) The lesion inhibition rate has been calculated according to following equation. Further, 50% effective dose (ED50) has been also calculated using regression analysis.
Lesion inhibition rate(%)={gastric lesion area of control group(mm^2)−gastric lesion area of drug administration group(mm^2)}/gastric lesion area of control group(mm^2)×100

[4] = +S9 (metabolic activation method)

`C=C1C(=O)O[C@@H]2/C=C(\C)CC/C=C(\C)C[C@@H](OC(C)=O)C12` (stereo partly shown) [reference compound] was tested, and the “Chromosomal aberration test result” value [1, 4] was “positive positive” and the “Chromosomal aberration test result” value ([1]; −S9 (direct method)) was “positive positive”.

`CC(=O)O[C@@H]1/C=C(\C)CCC/C(C)=C/[C@H]2OC(=O)[C@H](CN(C)C)C12` (stereo partly shown) [reference compound] was tested, and the “Chromosomal aberration test result” value [1, 4] was “positive positive” and the “Chromosomal aberration test result” value ([1]; −S9 (direct method)) was “positive positive”.

For `C=C1C(=O)O[C@@H]2[C@@H]3[C@@H](CC[C@@]3(C)O)[C@](C)(OC)CC[C@@H]12` [CD-103], the “Chromosomal aberration test results” value ([1]; +S9, dose 2.5 μg/kg) was “negative”, the “Chromosomal aberration test results” value ([1]; +S9, dose 5 μg/kg) was “negative” and the “Induction of chromosomal aberration” value ([1]; CHL cell) was “do not induce the chromosomal aberration”. The “Chromosomal aberration test results” value ([1]; −S9, dose 0.625 μg/kg) was “negative” and the “Chromosomal aberration test results” value ([1]; −S9, dose 1.25 μg/kg) was “negative”.

`C=C1C(=O)O[C@@H]2/C=C(\C)CCC(O)C(C)(O)C[C@@H](OC(C)=O)C12` (stereo partly shown) [reference compound] was tested, and the “Chromosomal aberration test result” value [1, 4] was “positive positive” and the “Chromosomal aberration test result” value ([1]; −S9 (direct method)) was “positive positive”.

With `CO[C@@]12[C@H](COC(N)=O)C3=C(C(=O)C(C)=C(N)C3=O)N1C[C@@H]1N[C@@H]12` [Mitomycin C, reference compound] the “Chromosomal aberration test results” value ([1]; −S9, dose 0.5 μg/kg) was “positive”.

In the case of `C=C1C(=O)O[C@@H]2[C@@H]3[C@@H](CC[C@@]3(C)O)C(=C)CC[C@@H]12` [CD-102], the inhibition at 1 mg/kg ([2]; Rattus norvegicus, dose 1 mg/kg, read-out: Lesion inhibition rate) is reported as 41.6%, the inhibition at 3 mg/kg ([2]; Rattus norvegicus, dose 3 mg/kg, read-out: Lesion inhibition rate) is reported as 56.1% and the inhibition at 10 mg/kg ([2]; Rattus norvegicus, dose 10 mg/kg, read-out: Lesion inhibition rate) is reported as 77.2%. The “50% effective dose (ED50)” value ([2]; regression analysis) was 1.82 mg/kg, the “Chromosomal aberration test results” value ([1]; +S9, dose 5 μg/kg) was “negative” and the “Chromosomal aberration test results” value ([1]; +S9, dose 20 μg/kg) was “negative”. For the same compound, the Cytotoxicity ([1]; CHL cell) was “neither cytotoxicity”, the “Induction of chromosomal aberration” value ([1]; CHL cell) was “do not induce the chromosomal aberration” and the “Chromosomal aberration test results” value ([1]; −S9, dose 1.25 μg/kg) was “negative”. For the same compound, the “Chromosomal aberration test results” value ([1]; −S9, dose 5 μg/kg) was “negative”, the inhibition at 1 mg/kg ([3]; Rattus norvegicus, oral, dose 1 mg/kg, read-out: Lesion inhibition rate) was 43% and the inhibition at 3 mg/kg ([3]; Rattus norvegicus, oral, dose 3 mg/kg, read-out: Lesion inhibition rate) was 70.4%. For the same compound, the inhibition at 10 mg/kg ([3]; Rattus norvegicus, oral, dose 10 mg/kg, read-out: Lesion inhibition rate) was 94.9% and the “50% effective dose (ED50)” value ([3]; oral, regression analysis) was 1.31 mg/kg.

In the case of `C=C1C(=O)O[C@@H]2[C@@H](O)[C@]3(C)CC[C@H]3[C@](C)(OC)CC[C@@H]12` [CD-101], the “Chromosomal aberration test results” value ([1]; +S9, dose 20 μg/kg) is reported as “negative”, the “Chromosomal aberration test results” value ([1]; +S9, dose 40 μg/kg) is reported as “negative” and the “Induction of chromosomal aberration” value ([1]; CHL cell) is reported as “do not induce the chromosomal aberration”. For the same compound, the “Chromosomal aberration test results” value ([1]; −S9, dose 5 μg/kg) was “negative”.

For `CC1=C2C3OC(=O)[C@@H](C)[C@@H]3CC[C@@]2(C)C=CC1=O` (stereo partly shown) [reference compound], the Lesion inhibition rate ([3]; Table 2, ineffective compounds, dose not given) was “no effect”.
